{"source": "patent US20230110676A1", "about": "“Method of Treating Diseases” (priority 2020, published 2023)", "key": {"[1]": {"test_system": "N2 C. elegans", "test": "Life-extension effect on worm under regular culture conditions", "type": "in vivo", "description": "In this example, the biological functions of ergothioneine were investigated using C. elegans as the model system. Using C. elegans as the model has several prominent advantages, including short life cycle, simple experimental manipulation, and rich collection of publicly available genetic mutants (e.g., Caenorhabditis Genetics Center). In addition, its genome comprises ⅔ of human disease-related genes.\n(§1) To test the biological effect of ergothioneine, the first set of experiments was to test the toxicity level of ergothioneine on the worm model. In humans, ergothioneine is enriched up to 2 mM concentration in many parts of the body. […] At 150 μM, the lifespan of the wild type worm can be extended by 30-40% (FIG. 2A). Over the last two decades, there is numerous evidence supporting the life-extension effect by caloric restriction from various model systems (yeast, worm, fly, and mouse). Thus, the effect of ergothioneine on worm Eat-2 mutant was also examined."}, "[2]": {"test_system": "worm Eat-2 mutant", "test": "Life-extension effect on caloric-restriction worm mutant", "type": "in vivo, C. elegans", "settings": "Eat-2 mutant (partial starvation)", "procedure": "as §1"}, "[3]": {"test_system": "N2 worms", "test": "Protective effect under paraquat-induced oxidative stress", "type": "in vivo, C. elegans", "settings": "N2 worms treated with paraquat", "procedure": "Encouraged by the clear life-extension effect on worm model under regular culture conditions in the above example, the protective effect of ergothioneine under stresses was examined. In the first experiment, the worm was treated with paraquat to induce oxidative stress. Under the paraquat-induced oxidative stress conditions, N2 worms' life span was decreased by nearly 50% (FIG. 2C vs. FIG. 2A)."}, "[4]": {"test_system": "N2 worm", "test": "Protective effect under heat shock conditions", "type": "in vivo, C. elegans", "settings": "N2 worm moved from 20° C. to 42° C.; a few hundred micromolar; 3 hours without", "procedure": "Besides the oxidative stress, the protective effect of ergothioneine for the worm under heat shock conditions was also examined. After the worms were cultured multiple days, they were then moved from 20° C. to 42° C. Under such a heat-shock condition, 50% of the worm died within 3 hours. However, in the presence of a few hundred micromolar concentration of ergothioneine, it extends N2 worm's average survival time from 3 hours to nearly 8-9 hours (FIG. 2D)."}, "[5]": {"test_system": "daf-16 mutant worm", "test": "Life-extension effect on daf-16 mutant worm", "type": "in vivo, C. elegans", "description": "To address this issue, the large collection of C. elegans mutants in Caenorhabditis Genetics Center was again utilized in this example. Among the mutants examined, the daf-16 mutant results stood out (FIGS. 3A, 3B, and 3C). […] Among genes of the IIS pathway, daf-2 encodes an insulin-like receptor, and it is the starting point of the pathway that eventually leads to daf-16. Daf-16 is the hub, where information from several different pathways merge and then use to regulate many physiological processes. Worm daf-16 mutant has an average life-span that is […] the N2 worm (FIGS. 3A, 3B, and 3C)."}, "[6]": {"test_system": "MPTP Parkinson's disease mouse model", "test": "MPTP Parkinson's disease mouse model, latency test on rotatory plate/rod", "type": "in vivo", "settings": "mice, 20 mg/Kg MPTP for seven days; ergothioneine 10, 20 mg/kg co-injection or 40 mg/kg in water, 7 days", "procedure": "(§2) Parkinson mouse model was induced by 1-methyl-4-phenyl-1,2,3,6-tetrahydropyridine (MPTP), which induced toxicity to dopaminergic neurons (latency test). Behavior test was done by testing mouse behavior: how long can they hold on rotatory plate/rod. The longer they stay, the better their health conditions. After MPTP treatment, mice are clearly much weaker. […] Significance of difference was determined by unpaired two-tailed t-test. #P<0.05 compared with control, *P<0.05, **P<0.01, ****P<0.0001 compared with MPPP-treated control. 1) Latency test results of control group with no MPTP or ergothioneine; 2) Latency test results of mice treated with 20 mg/Kg of MPTP for seven days; 3) Latency test results of mice treated with 20 mg/Kg of MPTP and 10 mg/kg of ergothioneine (co-injection) for seven days; 4) Latency test results of mice treated with 20 mg/Kg of MPTP and 20 mg/kg of ergothioneine (co-injection) for seven days; 5) Latency test results of mice treated with 20 mg/Kg of MPTP and 40 mg/kg of ergothioneine in water for seven days."}, "[7]": {"test_system": "MPTP Parkinson's disease mouse model", "test": "MPTP Parkinson's disease mouse model, pole test", "type": "in vivo", "settings": "mice, 20 mg/Kg MPTP for seven days; ergothioneine 10, 20 mg/kg co-injection or 40 mg/kg in water, 7 days", "procedure": "as §2, with “by MPTP.” for “by 1-methyl-4-phenyl-1,2,3,6-tetrahydropyridine (MPTP), which induced toxicity to dopaminergic neurons (latency test).”, “long does it take for the mice to climb to the top of a rod. The shorter time” for “long can”, “they took,” for “they hold on rotatory plate/rod. The longer they stay,”, “health conditions are.” for “health conditions.”, “t-test. ###P<0.05” for “t-test. #P<0.05”, “control, ***P<0.001,” for “control, *P<0.05, **P<0.01,”"}, "[8]": {"test_system": "worm", "test": "Protective effect on MPP+ detrimental effect, worm survival rate", "type": "in vivo", "settings": "0.75 mM of MPTP plus 400 μM ergothioneine; ~50% without ergothioneine", "procedure": "However, ergothioneine can offer significant protection. The last column is the worm with no ergothioneine or MPTP treatment. The first column is the worm survival rate after treating with 0.75 mM of MPTP."}, "[9]": {"test_system": "a-Synuclein Overexpression Worm Model", "test": "Heat shock experiment in α-synuclein overexpression worm Parkinson's disease model", "type": "in vivo", "settings": "1.6 mM, 3 hours without", "procedure": "FIGS. 13A and B show Protective Effect for Heat-shock for Both Wild-type and a-Synuclein Overexpression Worm Model (Parkinson's disease). Heat shock experiment. α-synuclein was expressed to create worm parkinson's disease model on worm. […] With 1.6 mM of ergothioneine, 50% survival time increased to 8 hours."}, "[10]": {"test_system": "mouse", "test": "Open field experiment, physical activities of disease group at week #57", "type": "in vivo", "settings": "mice, week #57, treated vs control disease group", "description": "FIGS. 5A and 5B show the physical activities of untreated disease group and treated disease group at week #57 (open field experiment). A) Real time trace of mouse movement. […] B) Quantitative measurement of the distance each mouse moved during the testing period and the time they spent in the open area."}}}
{"smiles": "C[N+](C)(C)[C@@H](Cc1c[nH]c(=S)[nH]1)C(=O)[O-]", "note": "[ergothioneine]", "values": [{"measurement": "life-extension effect", "setting": "[1]; N2 C. elegans, concentrations as low as 50 μM", "result": "robust life-extension effect"}, {"measurement": "lifespan extension", "setting": "[1]; wild type worm, 150 μM", "result": "30-40%"}, {"measurement": "life extension of Eat-2 worm mutant", "setting": "[2]", "result": "can further extend the life"}, {"measurement": "protective effect under oxidative stress", "setting": "[3]", "result": "clearly offers protective effects"}, {"measurement": "average survival time under heat shock", "setting": "[4]", "result": "8 to 9", "unit": "h"}, {"measurement": "life-extension effect on daf-16 mutant", "setting": "[5]", "result": "the life-extension effect was abolished"}, {"measurement": "latency test (time held on rotatory plate/rod)", "setting": "[6]", "result": "mice are clearly protected from these detrimental effects"}, {"measurement": "pole test (time to climb to the top of a rod)", "setting": "[7]", "result": "mice are clearly protected from these detrimental effects"}, {"measurement": "worm survival rate", "setting": "[8]", "result": "~90", "unit": "%"}, {"measurement": "50% survival time under heat shock", "setting": "[9]", "result": 8, "unit": "h"}, {"measurement": "physical activities in open field", "setting": "[10]", "result": "demonstrated much more activities"}]}
